From paper PMC6155239, “Targeting PFKFB3 radiosensitizes cancer cells and suppresses homologous recombination” (Nature Communications, 2018)

Tests used:
[1] = tested on: cell lines representing pancreatic, gastric, and colon cancer; test: Cell viability of cancer cell lines; type: cell-based; conditions: prolonged incubation (72 h)
Experimental: Cell proliferation was assayed by quantifying total cellular protein levels after indicated treatments and incubation times using the Sulphorhodamine B kit, TOX6 (Sigma-Aldrich). MIA PaCa-2, PANC1, SW620, and SW480 cells were plated at a density of 6 × 10^3 cells/well in 96-well plates (CLS3596, Sigma-Aldrich) and allowed to attach overnight. The following day, compounds were diluted in dose–response curve mode, required volume was transferred to assay medium to a maximal DMSO concentration of 0.1%. The diluted compounds were added to the cells with a starting dose–response concentration of 100 µM, all compounds were tested in duplicate plates. After 72 h of incubation with compounds, total protein per well was precipitated using TCA according to the manufacturer's instructions; the sulphorhodamine dye was added to the air-dried wells. After 20 min incubation at room temperature, the dye was discarded and the samples were gently rinsed with 1% HOAc until clear. After air drying, bound dye was solubilized in 10 mM Tris base, and the absorbance of dye was measured at 565 nm. To quantify growth, samples were collected also at t = 0 h, and the resulting absorbance was set to 100%.

BJ TERT cells = test: Clonogenic survival, BJ TERT; type: cell-based; conditions: with and without IR (2 Gy), concentrations active in BJ RAS
Experimental: U2OS cells were transfected with indicated siRNAs and 24 h later exposed to IR (2 Gy) or left untreated and allowed to recover for 4 h. One-hundred U2OS cells were then seeded into 6-well plates and after 10 days colonies were fixed and stained with 4% methylene blue (Sigma Aldrich) in methanol. BJ TERT (500 cells), BJ RAS (200 cells), or U2OS (200 cells) were seeded into 6-well plates 24 h prior to treatment with inhibitors as indicated or vehicle for 24 h and then subjected to IR (2 Gy). The inhibitors were washed out 72 h later and colonies were fixed 4 days (BJ RAS) or 7 days (BJ TERT) later with 4% methylene blue in methanol.

PFKFB3 [2] = target: T1, PFKFB3 (Homo sapiens, UniProt Q16875); test: Cellular thermal shift assay (CETSA) in U2OS cells; type: cell-based; conditions: 10 µM
Experimental: U2OS cells in exponential growth rate were treated with indicated inhibitors at a concentration of 10 μM or DMSO for 6, 24, or 72 h and then harvested using trypsin, upon detachment trypsinization was inhibited by addition of cell media and cells spun down at 200 × g for 10 min at 4 °C. The pellet was resuspended in TBS (50 mM Tris–HCl (pH 7.5) and 150 mM NaCl) supplemented with protease inhibitors (Roche), cells were lysed by a freeze–thaw circle three times at −80 °C for 3 min and then 37 °C for 3 min. Debris was removed by centrifugation at 16,000 × g for 20 min at 4 °C, cell lysates were aliquoted and heated to indicated temperatures for 3 min. Insoluble proteins were then removed by centrifugation at 16,000 × g at 4 °C for 20 min, supernatant was transferred to new tubes and protein concentration was determined using BCA assay (Pierce). Western blot was performed according to standard procedures.

U2OS cells = test: EdU incorporation in G2/M phase upon IR, flow cytometry; type: cell-based; conditions: 10 μM 6 h prior to IR 6 Gy
ABL1-nonphosphorylated = target: T2, ABL1-nonphosphorylated (Homo sapiens, UniProt P00519); test: KINOMEscan; type: binding; conditions: 2000 nM; read-out: Percent Control
T2 construct: purchased DiscoverX (Eurofins) KINOMEscan / scanEDGE, inferred from the naming style

GSK3B = target: T3, GSK3B (Homo sapiens, UniProt P49841); test: KINOMEscan; type: binding; conditions: 2000 nM; read-out: Percent Control
T3 construct: purchased DiscoverX (Eurofins) KINOMEscan / scanEDGE, inferred from the naming style

PFKFB3 [3] = target: T1, PFKFB3; test: Isothermal titration calorimetry; type: binding; conditions: 25 °C
Experimental: ITC was performed for the titration of 200 μM KAN0438241 into 20 μM PFKFB3 protein. Raw ITC data was recorded for 12 × 3 μl injections (preceded by 0.4 μl injection). Data was collected with PEAQ-ITC system (MicroCal™, Malvern Instruments) at 25 °C, 10 μcal/s Reference Power, High Feedback, and 750 rpm stirring rate. A constant value of the heat of dilution was fitted along with the binding parameters. Data analysis performed with dedicated PEAQ-ITC analysis software (MicroCal, Malvern Instruments).

BTK = target: T4, BTK (Homo sapiens, UniProt Q06187); test: KINOMEscan; type: binding; conditions: 2000 nM; read-out: Percent Control
T4 construct: purchased DiscoverX (Eurofins) KINOMEscan / scanEDGE, inferred from the naming style

CHEK1 = target: T5, CHEK1 (Homo sapiens, UniProt O14757); test: KINOMEscan; type: binding; conditions: 2000 nM; read-out: Percent Control
T5 construct: purchased DiscoverX (Eurofins) KINOMEscan / scanEDGE, inferred from the naming style

ADCK3 = target: T6, ADCK3 (Homo sapiens, UniProt Q8NI60); test: KINOMEscan; type: binding; conditions: 2000 nM; read-out: Percent Control
T6 construct: purchased DiscoverX (Eurofins) KINOMEscan / scanEDGE, inferred from the naming style

AKT1 = target: T7, AKT1 (Homo sapiens, UniProt P31749); test: KINOMEscan; type: binding; conditions: 2000 nM; read-out: Percent Control
T7 construct: purchased DiscoverX (Eurofins) KINOMEscan / scanEDGE, inferred from the naming style

AURKA = target: T8, AURKA (Homo sapiens, UniProt O14965); test: KINOMEscan; type: binding; conditions: 2000 nM; read-out: Percent Control
T8 construct: purchased DiscoverX (Eurofins) KINOMEscan / scanEDGE, inferred from the naming style

[4] = target: T9, ABL1(E255K)-phosphorylated (Homo sapiens, UniProt P00519, E255K); test: KINOMEscan; type: binding; conditions: 2000 nM; read-out: Percent Control
T9 construct: purchased DiscoverX (Eurofins) KINOMEscan / scanEDGE, inferred from the naming style

CDK7 = target: T10, CDK7 (Homo sapiens, UniProt P50613); test: KINOMEscan; type: binding; conditions: 2000 nM; read-out: Percent Control
T10 construct: purchased DiscoverX (Eurofins) KINOMEscan / scanEDGE, inferred from the naming style

FGFR3 = target: T11, FGFR3 (Homo sapiens, UniProt P22607); test: KINOMEscan; type: binding; conditions: 2000 nM; read-out: Percent Control
T11 construct: purchased DiscoverX (Eurofins) KINOMEscan / scanEDGE, inferred from the naming style

AXL = target: T12, AXL (Homo sapiens, UniProt P30530); test: KINOMEscan; type: binding; conditions: 2000 nM; read-out: Percent Control
T12 construct: purchased DiscoverX (Eurofins) KINOMEscan / scanEDGE, inferred from the naming style

EPHA2 = target: T13, EPHA2 (Homo sapiens, UniProt P29317); test: KINOMEscan; type: binding; conditions: 2000 nM; read-out: Percent Control
T13 construct: purchased DiscoverX (Eurofins) KINOMEscan / scanEDGE, inferred from the naming style

ACVR1B = target: T14, ACVR1B (Homo sapiens, UniProt P36896); test: KINOMEscan; type: binding; conditions: 2000 nM; read-out: Percent Control
T14 construct: purchased DiscoverX (Eurofins) KINOMEscan / scanEDGE, inferred from the naming style

BRAF(V600E) = target: T15, BRAF(V600E) (Homo sapiens, UniProt P15056, V600E); test: KINOMEscan; type: binding; conditions: 2000 nM; read-out: Percent Control
T15 construct: purchased DiscoverX (Eurofins) KINOMEscan / scanEDGE, inferred from the naming style

IGF1R = target: T16, IGF1R (Homo sapiens, UniProt P08069); test: KINOMEscan; type: binding; conditions: 2000 nM; read-out: Percent Control
T16 construct: purchased DiscoverX (Eurofins) KINOMEscan / scanEDGE, inferred from the naming style

DYRK1B = target: T17, DYRK1B (Homo sapiens, UniProt Q9Y463); test: KINOMEscan; type: binding; conditions: 2000 nM; read-out: Percent Control
T17 construct: purchased DiscoverX (Eurofins) KINOMEscan / scanEDGE, inferred from the naming style

AURKB = target: T18, AURKB (Homo sapiens, UniProt Q96GD4); test: KINOMEscan; type: binding; conditions: 2000 nM; read-out: Percent Control
T18 construct: purchased DiscoverX (Eurofins) KINOMEscan / scanEDGE, inferred from the naming style

CSNK1G2 = target: T19, CSNK1G2 (Homo sapiens, UniProt P78368); test: KINOMEscan; type: binding; conditions: 2000 nM; read-out: Percent Control
T19 construct: purchased DiscoverX (Eurofins) KINOMEscan / scanEDGE, inferred from the naming style

FAK = target: T20, FAK (Homo sapiens, UniProt Q05397); test: KINOMEscan; type: binding; conditions: 2000 nM; read-out: Percent Control
T20 construct: purchased DiscoverX (Eurofins) KINOMEscan / scanEDGE, inferred from the naming style

CDK3 = target: T21, CDK3 (Homo sapiens, UniProt Q00526); test: KINOMEscan; type: binding; conditions: 2000 nM; read-out: Percent Control
T21 construct: purchased DiscoverX (Eurofins) KINOMEscan / scanEDGE, inferred from the naming style
T21 sequence (Q00526 whole entry): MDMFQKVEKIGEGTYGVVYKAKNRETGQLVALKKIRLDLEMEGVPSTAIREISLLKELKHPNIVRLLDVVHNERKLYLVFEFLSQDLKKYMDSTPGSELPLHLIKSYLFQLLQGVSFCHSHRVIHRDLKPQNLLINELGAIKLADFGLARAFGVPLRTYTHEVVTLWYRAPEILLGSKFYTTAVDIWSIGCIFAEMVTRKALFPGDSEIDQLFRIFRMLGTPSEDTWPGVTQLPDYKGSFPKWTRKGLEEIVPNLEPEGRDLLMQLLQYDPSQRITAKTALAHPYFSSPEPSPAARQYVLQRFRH

T1 sequence (Q16875 whole entry): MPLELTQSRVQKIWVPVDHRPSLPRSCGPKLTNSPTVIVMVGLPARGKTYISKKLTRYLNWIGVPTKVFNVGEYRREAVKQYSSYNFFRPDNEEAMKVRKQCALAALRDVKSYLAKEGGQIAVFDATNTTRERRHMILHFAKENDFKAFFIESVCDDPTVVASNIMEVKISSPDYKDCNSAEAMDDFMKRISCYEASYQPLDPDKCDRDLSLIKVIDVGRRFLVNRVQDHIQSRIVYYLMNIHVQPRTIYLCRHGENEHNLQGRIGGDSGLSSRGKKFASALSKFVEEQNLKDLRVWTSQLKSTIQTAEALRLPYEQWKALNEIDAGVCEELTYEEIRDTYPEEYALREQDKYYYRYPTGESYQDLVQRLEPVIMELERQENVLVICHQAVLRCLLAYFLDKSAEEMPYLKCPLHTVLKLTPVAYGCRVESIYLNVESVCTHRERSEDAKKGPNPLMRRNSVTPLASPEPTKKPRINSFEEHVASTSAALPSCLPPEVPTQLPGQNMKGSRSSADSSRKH
T14 sequence (P36896 24-505): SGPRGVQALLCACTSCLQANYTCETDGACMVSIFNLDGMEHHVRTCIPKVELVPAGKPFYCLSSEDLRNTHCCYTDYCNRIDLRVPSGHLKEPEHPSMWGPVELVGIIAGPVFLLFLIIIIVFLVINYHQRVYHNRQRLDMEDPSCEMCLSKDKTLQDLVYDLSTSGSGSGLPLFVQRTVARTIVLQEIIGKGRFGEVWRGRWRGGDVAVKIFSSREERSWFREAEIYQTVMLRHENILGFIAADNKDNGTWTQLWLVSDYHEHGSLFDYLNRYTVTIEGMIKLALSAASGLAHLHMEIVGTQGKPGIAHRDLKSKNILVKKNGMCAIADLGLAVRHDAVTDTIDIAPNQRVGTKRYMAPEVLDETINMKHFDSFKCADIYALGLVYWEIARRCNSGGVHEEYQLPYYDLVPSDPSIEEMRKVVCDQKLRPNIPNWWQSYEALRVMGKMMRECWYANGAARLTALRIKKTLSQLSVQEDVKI
T2 sequence (P00519 whole entry): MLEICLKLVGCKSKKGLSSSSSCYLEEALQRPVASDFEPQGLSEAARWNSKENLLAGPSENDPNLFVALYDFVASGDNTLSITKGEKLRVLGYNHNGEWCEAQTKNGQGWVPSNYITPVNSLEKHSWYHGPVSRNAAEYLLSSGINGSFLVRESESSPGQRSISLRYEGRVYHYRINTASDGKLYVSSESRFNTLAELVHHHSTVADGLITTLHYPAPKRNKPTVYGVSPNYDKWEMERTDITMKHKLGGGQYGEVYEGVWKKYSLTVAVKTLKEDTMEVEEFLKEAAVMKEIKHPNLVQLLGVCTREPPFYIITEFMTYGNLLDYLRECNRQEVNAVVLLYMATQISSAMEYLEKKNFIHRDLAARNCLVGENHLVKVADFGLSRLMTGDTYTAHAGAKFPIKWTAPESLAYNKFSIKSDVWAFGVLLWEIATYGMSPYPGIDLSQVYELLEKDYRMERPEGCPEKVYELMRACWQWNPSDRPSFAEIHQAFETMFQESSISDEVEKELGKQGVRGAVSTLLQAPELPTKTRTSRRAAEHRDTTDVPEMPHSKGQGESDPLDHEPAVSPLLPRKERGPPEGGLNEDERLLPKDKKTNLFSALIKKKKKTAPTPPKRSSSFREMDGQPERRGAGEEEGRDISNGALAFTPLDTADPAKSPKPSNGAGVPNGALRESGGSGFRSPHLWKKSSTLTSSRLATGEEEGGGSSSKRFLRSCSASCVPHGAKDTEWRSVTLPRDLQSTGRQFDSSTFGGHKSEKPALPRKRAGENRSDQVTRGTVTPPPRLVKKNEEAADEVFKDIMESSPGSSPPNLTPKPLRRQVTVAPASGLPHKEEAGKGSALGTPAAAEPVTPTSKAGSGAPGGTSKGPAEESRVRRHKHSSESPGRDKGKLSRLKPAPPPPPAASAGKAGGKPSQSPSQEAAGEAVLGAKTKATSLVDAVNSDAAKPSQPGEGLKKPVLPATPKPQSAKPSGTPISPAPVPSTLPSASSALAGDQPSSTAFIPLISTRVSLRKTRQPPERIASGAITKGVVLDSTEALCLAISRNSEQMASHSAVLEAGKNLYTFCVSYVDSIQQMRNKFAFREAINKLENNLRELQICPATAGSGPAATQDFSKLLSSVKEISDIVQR
T6 sequence (Q8NI60 163-647): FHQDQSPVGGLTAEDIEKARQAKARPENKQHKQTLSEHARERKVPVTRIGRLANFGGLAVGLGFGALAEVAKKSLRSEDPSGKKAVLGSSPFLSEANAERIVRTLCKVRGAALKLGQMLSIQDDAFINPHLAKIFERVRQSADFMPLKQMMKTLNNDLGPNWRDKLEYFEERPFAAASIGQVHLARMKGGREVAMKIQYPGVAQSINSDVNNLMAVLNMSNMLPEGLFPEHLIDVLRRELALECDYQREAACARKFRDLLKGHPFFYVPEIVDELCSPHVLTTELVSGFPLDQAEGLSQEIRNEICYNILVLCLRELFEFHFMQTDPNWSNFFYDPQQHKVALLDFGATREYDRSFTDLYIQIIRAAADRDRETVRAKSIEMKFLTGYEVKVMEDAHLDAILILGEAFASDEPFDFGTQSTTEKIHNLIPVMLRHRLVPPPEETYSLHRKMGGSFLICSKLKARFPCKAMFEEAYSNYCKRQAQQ
T4 sequence (Q06187 whole entry): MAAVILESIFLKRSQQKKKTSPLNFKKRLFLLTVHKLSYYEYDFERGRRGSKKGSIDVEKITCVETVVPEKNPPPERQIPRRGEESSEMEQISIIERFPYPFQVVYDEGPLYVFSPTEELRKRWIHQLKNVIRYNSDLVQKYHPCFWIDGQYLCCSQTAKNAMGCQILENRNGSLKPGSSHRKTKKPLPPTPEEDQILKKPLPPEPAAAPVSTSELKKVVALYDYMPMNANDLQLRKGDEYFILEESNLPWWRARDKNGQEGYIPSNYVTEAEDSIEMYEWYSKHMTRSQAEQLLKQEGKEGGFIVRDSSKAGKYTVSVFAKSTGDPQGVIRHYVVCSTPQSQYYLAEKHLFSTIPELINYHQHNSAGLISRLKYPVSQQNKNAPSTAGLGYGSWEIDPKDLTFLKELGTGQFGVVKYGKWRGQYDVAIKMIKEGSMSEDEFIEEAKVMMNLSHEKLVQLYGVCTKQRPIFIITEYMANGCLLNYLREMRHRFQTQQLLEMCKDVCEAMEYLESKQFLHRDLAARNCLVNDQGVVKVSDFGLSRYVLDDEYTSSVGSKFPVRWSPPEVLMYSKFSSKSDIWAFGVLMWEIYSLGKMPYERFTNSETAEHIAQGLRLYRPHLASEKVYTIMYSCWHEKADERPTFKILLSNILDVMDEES
T10 sequence (P50613 whole entry): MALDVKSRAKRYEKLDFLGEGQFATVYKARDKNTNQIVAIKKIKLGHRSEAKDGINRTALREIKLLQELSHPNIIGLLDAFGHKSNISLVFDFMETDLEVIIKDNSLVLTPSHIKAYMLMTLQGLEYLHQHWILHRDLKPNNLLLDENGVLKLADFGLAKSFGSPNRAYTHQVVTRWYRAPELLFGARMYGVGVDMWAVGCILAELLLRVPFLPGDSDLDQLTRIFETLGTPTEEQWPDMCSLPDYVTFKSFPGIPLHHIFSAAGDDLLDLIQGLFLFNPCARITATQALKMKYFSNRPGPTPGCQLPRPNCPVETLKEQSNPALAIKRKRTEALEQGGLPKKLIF
T15 sequence (P15056 whole entry V600E): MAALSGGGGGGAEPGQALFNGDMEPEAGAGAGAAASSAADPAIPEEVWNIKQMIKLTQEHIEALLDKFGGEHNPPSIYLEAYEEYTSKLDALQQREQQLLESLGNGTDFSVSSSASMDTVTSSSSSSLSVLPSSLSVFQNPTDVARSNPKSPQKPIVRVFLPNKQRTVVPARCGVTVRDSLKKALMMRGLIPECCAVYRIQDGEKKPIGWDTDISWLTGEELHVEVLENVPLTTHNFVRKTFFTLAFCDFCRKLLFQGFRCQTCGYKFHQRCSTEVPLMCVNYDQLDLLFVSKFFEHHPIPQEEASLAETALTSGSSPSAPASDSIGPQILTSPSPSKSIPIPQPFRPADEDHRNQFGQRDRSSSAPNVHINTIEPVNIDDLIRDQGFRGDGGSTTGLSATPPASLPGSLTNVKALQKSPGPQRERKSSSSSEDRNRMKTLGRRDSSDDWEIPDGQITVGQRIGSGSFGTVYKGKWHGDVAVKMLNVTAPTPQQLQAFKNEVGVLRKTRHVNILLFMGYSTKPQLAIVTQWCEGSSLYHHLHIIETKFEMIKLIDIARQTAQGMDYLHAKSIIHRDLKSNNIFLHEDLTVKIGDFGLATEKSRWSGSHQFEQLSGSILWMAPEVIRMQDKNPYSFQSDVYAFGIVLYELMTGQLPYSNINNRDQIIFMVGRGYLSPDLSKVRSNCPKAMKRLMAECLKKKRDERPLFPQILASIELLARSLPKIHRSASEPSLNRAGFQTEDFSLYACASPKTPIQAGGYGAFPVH
T9 sequence (P00519 whole entry E255K): as the sequence (P00519 whole entry) above, with E255K counted along it

For `O=C(OCCO)c1ccc(NS(=O)(=O)c2cccc(-c3cc(F)ccc3O)c2)cc1O` [KAN0438757, 2-Hydroxyethyl-4-{[(5′-fluoro-2′-hydroxybiphenyl-3-yl)sulfonyl]amino}-2-hydroxybenzoate], the “effect on cell viability” value [1] was “significantly reduce cell viability”, the “clonogenic survival of BJ TERT (in words)” value (BJ TERT cells) was “only marginally affected” and the “intracellular target engagement of PFKFB3 (CETSA)” value (PFKFB3 [2]) was “demonstrated intracellular target engagement”. The “IR-induced increase in EdU-positive cell population in G2/M phase (in words)” value (U2OS cells) was “impaired”.

`O=C(O)c1ccc(NS(=O)(=O)c2cccc(-c3cc(F)ccc3O)c2)cc1O` [KAN0438241, 4-{[(5′-Fluoro-2′-hydroxybiphenyl-3-yl)sulfonyl]amino}-2-hydroxybenzoic acid] was tested, and the remaining binding at 2 µM (ABL1-nonphosphorylated) was 100%, the remaining binding at 2 µM (GSK3B) was 91% and the “potency for PFKFB3 by isothermal titration calorimetry (in words)” value (PFKFB3 [3]) was “sub-µM potency”. It also gave a remaining binding at 2 µM (BTK) of 100%, a remaining binding at 2 µM (CHEK1) of 89% and a remaining binding at 2 µM (ADCK3) of 100%. For the same compound, the remaining binding at 2 µM (AKT1) was 100%, the remaining binding at 2 µM (AURKA) was 97% and the remaining binding at 2 µM [4] was 100%. It also gave a remaining binding at 2 µM (CDK7) of 93%, a remaining binding at 2 µM (FGFR3) of 95% and a remaining binding at 2 µM (AXL) of 100%. It also gave a remaining binding at 2 µM (EPHA2) of 100%, a remaining binding at 2 µM (ACVR1B) of 100% and a remaining binding at 2 µM (BRAF(V600E)) of 97%. For the same compound, the remaining binding at 2 µM (IGF1R) was 100%, the remaining binding at 2 µM (DYRK1B) was 86% and the remaining binding at 2 µM (AURKB) was 92%. The remaining binding at 2 µM (CSNK1G2) was 97%, the remaining binding at 2 µM (FAK) was 96% and the remaining binding at 2 µM (CDK3) was 97%.
